In PMC5544777, “Kinetics and thermodynamics of the protein-ligand interactions in the riboflavin kinase activity of the FAD synthetase from Corynebacterium ammoniagenes” (Scientific Reports, 2017):
Where “and” joins values, the source holds several entries; their conditions need not be identical. Equal values may be shown once. Read-outs that look alike come from different tables or passages of the source.

Legend:
[1] = target: T1, RFK module of CaFADS (Corynebacterium ammoniagenes, UniProt Q59263, L183M); assay: Steady-state RFK activity (HPLC quantification of flavins); assay type: biochemical; conditions: for type of inhibition of the RFK activity: Dixon, Cornish-Bowden and Lineweaver-Burk plots
T1 construct: a truncated CaFADS variant consisting in the isolated C-terminal RFK module; made in house; host or cells: E. coli BL21(DE3)
T1 sequence (Q59263 183-338 L183M): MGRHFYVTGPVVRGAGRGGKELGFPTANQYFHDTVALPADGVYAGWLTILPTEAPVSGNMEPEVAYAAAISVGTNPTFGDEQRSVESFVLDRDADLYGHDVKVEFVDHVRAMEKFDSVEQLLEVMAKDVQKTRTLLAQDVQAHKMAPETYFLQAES
Experimental: In all cases, reactions were initiated by addition of the enzyme to a final concentration of ≈40 nM, which was followed by 1 min of incubation, and the reactions were stopped by boiling the samples at 100 °C for 5 min as previously described, [20]. The flavin composition of the supernatant was analyzed using an Alliance HPLC system (Waters) equipped with a 2707 autosampler and an HSST3 column (4.6 × 50 mm, […]; Waters) preceded by a precolumn (4.6 × 20 mm, […]; Waters) as previously described, [20]. […] All the experiments were carried out in triplicate.
Additionally, Dixon plots (1/(v 0/[e]) vs [I]) and Cornish-Bowden representations ([S]/(v 0/[e]) vs [I]) were used to reveal the type of inhibition, [43].

[2] = target: T1, RFK module of CaFADS; assay: Isothermal titration calorimetry of binary and ternary interactions; assay type: binding
Experimental: Isothermal titration calorimetry (ITC) experiments were performed to elucidate the order in which ligands bind to the enzyme, as well as the binding inhibition effects from the thermodynamic point of view. Experiments were carried out in an AutoITC200 (MicroCal) that was thermostated at 25 °C. […] Titrations with FLV ligands of mixtures that contained the enzyme prebound with the ANP ligand were also carried out, as well as ANP titrations of mixtures of the enzyme saturated with FLV ligands. In these experiments, the titration was performed by stepwise injecting the titrating ligand. Up to 19 injections of 2 μL each were added to the calorimetric sample cell and mixed at a stirring speed of 1000 r.p.m. Ligands and protein were dissolved in 20 mM PIPES, pH 7.0, either in the presence or absence of 0.8 mM MgCl2, and degassed prior to titration. The association constant (K a), the enthalpy change (ΔH) and the binding stoichiometry (N) were obtained through a nonlinear least squares regression of the data using a homemade model for one or two independent binding sites, which was implemented in Origin 7.0 (OriginLab) as previously described, [20]. The entropic contribution (-TΔS), the Gibbs free energy (ΔG) and the dissociation constant (K d) were obtained through essential thermodynamic equations.
Experiments were performed in triplicate.

[3] = Flavin photobleaching decay in the stopped-flow equipment; assay type: physicochemical; conditions: for photobleaching rate: flavin fluorescence decay during stopped-flow measurements, 25 °C, 0.8 mM MgCl2, pH 7.0; for rate of slow linear fluorescence decay (photobleaching range): flavin mixed with the RFK module without ANP, stopped-flow
Description: Due to the deterioration that flavins undergo when they are exposed to light, we also evaluated the FLV photobleaching decay during measurements.

[4] = initial mixture RFK:FMN, 0.0 mM MgCl2
[5] = initial mixture RFK:FMN, 0.8 mM MgCl2
[6] = initial mixture RFK:RF, 0.0 mM MgCl2
[7] = initial mixture RFK:RF, 0.8 mM MgCl2
[8] = initial mixture RFK, 0.0 mM MgCl2
[9] = initial mixture RFK, 0.8 mM MgCl2
[10] = apparent, ATP varied, ~5 µM RF, [ADP] 20 μM
[11] = apparent, ATP varied, ~5 µM RF, [ADP] 50 μM
[12] = apparent, ATP varied, ~5 µM RF, [ADP] 90 μM
[13] = apparent, ATP varied, ~5 µM RF, [ADP] 170 μM
[14] = initial mixture RFK:ADP, 0.0 mM MgCl2
[15] = initial mixture RFK:ADP, 0.8 mM MgCl2
[16] = initial mixture RFK:ATP, 0.0 mM MgCl2
[17] = initial mixture RFK:ATP, 0.8 mM MgCl2
[18] = apparent, RF varied, saturating ATP, [FMN] 1 μM
[19] = apparent, RF varied, saturating ATP, [FMN] 2 μM
[20] = apparent, RF varied, saturating ATP, [FMN] 3 μM
[21] = apparent, RF varied, saturating ATP, [FMN] 5 μM

Nc1ncnc2c1ncn2[C@@H]1O[C@H](COP(=O)(O)OP(=O)(O)O)[C@@H](O)[C@H]1O [ADP]
type of inhibition of the RFK activity [1]: competitive inhibitor | Ki ([1]; global fit of Lineweaver-Burk equation, competitive inhibition, ~5 µM RF, read-out: KiADP): 17 ± 3.3 µM | K m/K i ratio ([1]; product inhibitor potency, KmRF/KiFMN and KmATP/KiADP): ≈ 2.4 | -TΔS [2, 4]: 9.3 kcal/mol | ΔG [2, 4]: -6.6 kcal/mol | ΔH [2, 4]: -15.9 kcal/mol | Kd ([2]; initial mixture RFK:FMN, 0.0 mM MgCl2, read-out: Kd): 14.8 µM | -TΔS [2, 5]: 1.8 kcal/mol | ΔG [2, 5]: -8.5 kcal/mol | ΔH [2, 5]: -10.3 kcal/mol | Kd ([2]; initial mixture RFK:FMN, 0.8 mM MgCl2, read-out: Kd): 0.6 µM | -TΔS [2, 6]: 25.4 kcal/mol | ΔG [2, 6]: -6.5 kcal/mol | ΔH [2, 6]: -31.8 kcal/mol | Kd ([2]; initial mixture RFK:RF, 0.0 mM MgCl2, read-out: Kd): 17.1 µM | -TΔS [2, 7]: 5.2 kcal/mol | ΔG [2, 7]: -8.2 kcal/mol | ΔH [2, 7]: -13.4 kcal/mol | Kd ([2]; initial mixture RFK:RF, 0.8 mM MgCl2, read-out: Kd): 1 µM | -TΔS [2, 8]: 0.6 kcal/mol | ΔG [2, 8]: -5.8 kcal/mol | ΔH [2, 8]: -6.4 kcal/mol | Kd ([2]; initial mixture RFK, 0.0 mM MgCl2, 20 mM PIPES, pH 7.0, 25 °C, read-out: Kd): 51.4 µM | -TΔS [2, 9]: 3.5 kcal/mol | ΔG [2, 9]: -6.4 kcal/mol | ΔH [2, 9]: -9.8 kcal/mol | Kd ([2]; initial mixture RFK, 0.8 mM MgCl2, 20 mM PIPES, pH 7.0, 25 °C, read-out: Kd): 22.1 µM

Nc1ncnc2c1ncn2[C@@H]1O[C@H](COP(=O)(O)OP(=O)(O)OP(=O)(O)O)[C@@H](O)[C@H]1O [ATP]
KmATP ([1]; apparent, ATP varied, ~5 µM RF, [ADP] 0 μM, 25 °C, 0.8 mM MgCl2, pH 7.0): 60 ± 11 µM | k cat ([1]; apparent, ATP varied, ~5 µM RF, [ADP] 0 μM, 25 °C, 20 mM PIPES, 0.8 mM MgCl2, pH 7.0): 2.67 ± 0.167 s⁻¹ | KmATP [1, 10]: 110 ± 20 µM | k cat [1, 10]: 2.67 ± 0.167 s⁻¹ | KmATP [1, 11]: 140 ± 20 µM | k cat [1, 11]: 2.33 ± 0.167 s⁻¹ | KmATP [1, 12]: 260 ± 20 µM | k cat [1, 12]: 2.83 ± 0.167 s⁻¹ | KmATP [1, 13]: 700 ± 270 µM | k cat [1, 13]: 2.83 ± 1 s⁻¹ | k cat ([1]; global fit of Lineweaver-Burk equation, competitive inhibition by ADP, ATP varied, ~5 µM RF): 2.17 ± 0.5 s⁻¹ | KmATP ([1]; global fit of Lineweaver-Burk equation, competitive inhibition by ADP, ~5 µM RF): 40 ± 20 µM and 40 ± 12 µM | -TΔS [2, 4]: 9.3 kcal/mol | ΔH [2, 4]: -17.9 kcal/mol | -TΔS [2, 5]: 9.3 kcal/mol | ΔH [2, 5]: -19.5 kcal/mol | -TΔS [2, 6]: 66.6 kcal/mol | ΔH [2, 6]: -72.5 kcal/mol | -TΔS [2, 8]: -1.0 kcal/mol | ΔH [2, 8]: -5.5 kcal/mol | -TΔS [2, 9]: -0.6 kcal/mol | ΔG [2, 9]: -6.1 kcal/mol | ΔH [2, 9]: -5.6 kcal/mol

Cc1cc2nc3c(=O)[nH]c(=O)nc-3n(C[C@H](O)[C@H](O)[C@H](O)COP(=O)(O)O)c2cc1C [FMN, flavin mononucleotide]
photobleaching rate [3]: 0.0041 ± 0.00018 min⁻¹ | rate of slow linear fluorescence decay (photobleaching range) [3]: 0.0041 ± 0.00024 min⁻¹ | type of inhibition of the RFK activity [1]: uncompetitive inhibitor | interaction with the RFK module on titration with the individual ligand ([2]; ITC thermograms, free RFK module, titrated at different temperatures): does not interact or interacts with undetectable ΔCp | -TΔS [2, 14]: 10.6 kcal/mol | ΔG [2, 14]: -7.1 kcal/mol | ΔH [2, 14]: -17.7 kcal/mol | -TΔS [2, 15]: -1.9 kcal/mol | ΔG [2, 15]: -8.4 kcal/mol | ΔH [2, 15]: -6.4 kcal/mol | -TΔS [2, 16]: 15.4 kcal/mol | ΔG [2, 16]: -6.3 kcal/mol | ΔH [2, 16]: -21.7 kcal/mol | -TΔS [2, 17]: -0.2 kcal/mol | ΔG [2, 17]: -7.1 kcal/mol | ΔH [2, 17]: -6.9 kcal/mol

Cc1cc2nc3c(=O)[nH]c(=O)nc-3n(C[C@H](O)[C@H](O)[C@H](O)CO)c2cc1C [RF, riboflavin]
photobleaching rate [3]: 0.0046 ± 0.00018 min⁻¹ | rate of slow linear fluorescence decay (photobleaching range) [3]: 0.0045 ± 0.00012 min⁻¹ | Ki [1]: 1.9 ± 0.2 µM | KmRF ([1]; apparent, RF varied, saturating ATP, [FMN] 0 μM): 10 ± 2 µM | k cat ([1]; apparent, RF varied, saturating ATP, [FMN] 0 μM, substrate inhibition model, 25 °C, 0.8 mM MgCl2, pH 7.0): 7.33 ± 0.833 s⁻¹ | KmRF [1, 18]: 5.0 ± 1.1 µM | k cat [1, 18]: 4.67 ± 0.667 s⁻¹ | KmRF [1, 19]: 7.7 ± 1.4 µM | k cat [1, 19]: 4.5 ± 0.833 s⁻¹ | KmRF [1, 20]: 3.6 ± 0.9 µM | k cat [1, 20]: 2.33 ± 0.5 s⁻¹ | KmRF [1, 21]: 5.5 ± 2.1 µM | k cat [1, 21]: 2 ± 0.667 s⁻¹ | k cat ([1]; global fit of Lineweaver-Burk equation, uncompetitive inhibition by FMN, RF varied, saturating ATP): 5.33 ± 0.667 s⁻¹ and 5.33 ± 0.5 s⁻¹ | KmRF ([1]; global fit of Lineweaver-Burk equation, uncompetitive inhibition by FMN, saturating ATP): 6.9 ± 0.4 µM | Kd ([2]; Kd, initial mixture RFK:ADP, 0.0 mM MgCl2): 14.5 µM | Kd ([2]; Kd, initial mixture RFK:ADP, 0.8 mM MgCl2): 2.3 µM | Kd ([2]; Kd, initial mixture RFK, 0.8 mM MgCl2, 20 mM PIPES, pH 7.0, 25 °C): 15.2 µM | -TΔS [2, 14]: 67.7 kcal/mol | ΔG [2, 14]: -6.6 kcal/mol | ΔH [2, 14]: -74.3 kcal/mol | -TΔS [2, 15]: 11.5 kcal/mol | ΔG [2, 15]: -7.6 kcal/mol | ΔH [2, 15]: -19.2 kcal/mol | Kd [2, 16]: does not bind | -TΔS [2, 8]: -0.9 kcal/mol | ΔG [2, 8]: -6.9 kcal/mol | ΔH [2, 8]: -5.9 kcal/mol | -TΔS [2, 9]: 4.1 kcal/mol | ΔG [2, 9]: -6.6 kcal/mol | ΔH [2, 9]: -10.6 kcal/mol
